These are literature values, as cited in US7897154B2, “Dermal drops” (ABR, LLC, priority 2006, dated 2011).

The conditions of data set [1]: animal models of non-insulin-dependent diabetes.
The subject of data set [2] is H. ras transformed rat2 cells.
The subject of data set [3] is pre-adipocyte.

As for dehydrotrametenolic acid [DHTA], in data set [1], the sensitization to insulin entry is reported as “sensitize animal models of non-insulin-dependent diabetes to insulin”. In data set [2], the apoptosis entry is on record as “induce apoptosis” and the growth entry was “inhibit the growth of H. ras”. Moreover, the pre-adipocyte differentiation entry in data set [3] is “induce pre-adipocyte differentiation”.
